Measured values as given in patent US20250197442A1, “Peptide Synthesis in Aqueous Solution” (priority 2023, published 2025).

Conditions: for amount of Tween 80 required to dissolve the Fmoc protected amino acid, relative to its amount: aqueous solution, room temperature; for solubility in aqueous solutions: without the dissolving procedure
Method: A process for dissolving Fmoc-AA in Aqueous Solution was developed and it is summarized as follows (FIG. 9). Firstly, a non-ionic surfactant is dissolved in a small portion of a water-miscible organic solvent, creating Solution A. Secondly, FAA is dissolved in another small portion of a water-miscible organic solvent, creating Solution B. These two solutions, Solution A and Solution B, are thoroughly mixed to create a homogeneous mixture. This mixture is then added vigorously to an aqueous solvent.
To enable the utilization of Fmoc-AA as a building block in an aqueous solution, a specialized procedure has been developed to render Fmoc-AA soluble in aqueous solvents. The present invention devised a method to render Fmoc-AA soluble in water. First, none ionic surfactant is dissolved in a small amount of water-mixable organic solution, creating solution A, and then secondly, a Fmoc-AA is dissolved in a small amount of water-mixable organic solvent to create solution B, Solution A is thoroughly mixed with Solution B. The resulting mixture is then vigorously added to an aqueous solution. Fmoc-AA aqueous solution is obtained (FIG. 9),
4 grams of Tween 80 are added to 2 ml of DMSO to create solution A. and 1 grams of Fmoc-AA are added to 5 ml of DMSO to create solution B, solution A and solution B are mixed thoroughly, and then the resulting mixture is added to 88 ml of water to obtain a 1% concentration of Fmoc-AA in aqueous solution.
• Step 1: Dissolve 1.08 grams of Fmoc-Gly in 6.13 ml of DMSO solvent. Next, add 6.00 milliliters (mL) of a 70% Tween 80 in DMSO solution to the Fmoc-Gly DMSO solution. • Step 2: Pour this mixture into 87 mL of deionized (DI) water.
Dissolve 0.18 grams of Fmoc-Phe in 1.98 DMSO of solvent. Next, add 2.26 milliliters (mL) of a 70% Tween 80 in DMSO solution to Fmoc-Phe solution.
Transfer this mixture into 20.38 mL of deionized water.
Gradually, add 70% T dropwise until the solution becomes clear.
This process yields a solution containing 0.72% Fmoc-Phe in an aqueous solution with 10.80% DMSO.

Row | amount of Tween 80 required to dissolve the Fmoc protected amino acid, relative to its amount | solubility in aqueous solutions | effect of raising the temperature on solubility in aqueous solution (raised temperature) | Compound
1 | approximately four times | poor solubility |  | O=C(O)CNC(=O)OCC1c2ccccc2-c2ccccc21 [Fmoc-Gly, Fmoc-Glycine]
2 | approximately eight times | poor solubility | significantly increase the solubility | O=C(N[C@@H](Cc1ccccc1)C(=O)O)OCC1c2ccccc2-c2ccccc21 [Fmoc-Phe, Fmoc-Phenylalanine]
